From patent publication EP4793271A1, “NEUROPROTECTIVE AGENT” (National Center of Neurology and Psychiatry, priority 2023, dated 2025) come the findings set out here.

The structures appear in SMILES notation.

The target in data set [1] is T1, hSARM1 (Homo sapiens, UniProt Q6SZW1).
T1 sequence (Q6SZW1 28-724): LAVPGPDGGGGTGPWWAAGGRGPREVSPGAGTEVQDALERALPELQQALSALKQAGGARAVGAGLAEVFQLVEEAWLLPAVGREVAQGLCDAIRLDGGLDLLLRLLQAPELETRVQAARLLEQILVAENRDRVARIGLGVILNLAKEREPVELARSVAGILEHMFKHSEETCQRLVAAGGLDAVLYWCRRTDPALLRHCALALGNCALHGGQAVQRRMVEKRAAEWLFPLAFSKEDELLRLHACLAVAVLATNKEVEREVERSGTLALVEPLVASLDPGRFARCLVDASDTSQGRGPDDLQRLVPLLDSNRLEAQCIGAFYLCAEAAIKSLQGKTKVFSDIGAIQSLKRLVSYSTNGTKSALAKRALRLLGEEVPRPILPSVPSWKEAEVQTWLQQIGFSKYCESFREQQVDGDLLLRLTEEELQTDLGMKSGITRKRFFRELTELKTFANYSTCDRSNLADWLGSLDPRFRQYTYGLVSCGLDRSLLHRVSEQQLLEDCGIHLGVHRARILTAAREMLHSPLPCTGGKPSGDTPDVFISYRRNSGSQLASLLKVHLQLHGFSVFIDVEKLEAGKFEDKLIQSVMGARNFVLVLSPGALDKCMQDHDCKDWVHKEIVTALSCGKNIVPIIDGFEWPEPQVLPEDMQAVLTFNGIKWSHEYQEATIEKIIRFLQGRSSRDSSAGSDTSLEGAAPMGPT
The data set is described as follows: SARM1 inhibitory activity using recombinant SARM1 (PC6 base exchange fluorescence). Details: purchased BPS Bioscience. In kind it is biochemical. The following applies: recombinant human SARM1 2 ng/µL; NMN 10 µM; NAD 1 mM; PC6 50 µM; result in words. On the procedure: The SARM1 inhibitory activity was evaluated by the following method using recombinant SARM1 from BPS Bioscience.
NMN, an endogenous activator for SARM1, was added at a final concentration of 10 µM to a reaction solution (composition: 40 mM HEPES-KOH (pH 7.4), 0.1% polyvinyl alcohol, and 110 mM potassium acetate) using a 96-well black plate. Subsequently, serial dilutions of the test compound and recombinant human SARM1 (final concentration: 2 ng/µL) were added thereto and preincubated at room temperature for 5 to 10 minutes. NAD and PC6 were added as substrates at final concentrations of 1 mM and 50 µM, respectively, to each well and incubated at room temperature for 1 hour, followed by fluorescent signal measurement using SpectraMax M2 (Molecular Devices) (excitation: 390 nm, fluorescence: 520 nm, fluorescence cutoff: 515 nm) (Li et al, eLife 2021 10: e67381). The fluorescent signal was normalized by using fluorescence intensity measured from a control group without addition of recombinant human SARM1 as a background whereas using fluorescence intensity measured from a control group supplemented with recombinant human SARM1 as the negative control, and plotted as the function of the test compound concentrations, and the compound was evaluated for its SARM1 inhibitory activity by calculating IC50.

The conditions of data set [2]: mouse, in vivo.
Experimental: Compound 35 was intravenously (iv: 1 mg/5 ml/kg) administered at a single dose to C57BL/6J male mice (about 10 weeks old (non-fasted), n = 3), and blood was collected 5, 15, and 30 minutes, and 1, 2, 4, 8, and 24 hours later. Likewise, compound 35 was orally (po: 10 mg/10 ml/kg) administered at a single dose to C57BL/6J male mice (about 10 weeks old (non-fasted), n = 3), and blood was collected 15 and 30 minutes, and 1, 2, 4, 8, and 24 hours later. Urine was collected from each mouse up to 24 hours after administration (pooled urine).
Data set [3] in a line: In vitro analysis of metabolite production with a UV (254 nm) chromatogram.
Data set [4] addresses T1, hSARM1. Put plainly: Human SARM1 activity measurement in HEK293 cells transiently transfected with ΔN-hSARM1 (PC6 fluorescent probe). In kind it is cell-based. On the set-up: expressed in transfected cells; host or cells: HEK293, pcDNA3 expression vector. The conditions noted are these: inhibition rate; compound 30 µM; PC6 50 µM; HEK293 cells expressing ΔN-hSARM1; approximately 48 hours from transfection; read-out: Evaluation on hSARM1 inhibitory. The method in brief: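 HEK293 cells in nicotinamide-free DMEM with 5 μM nicotinamide, transiently transfected with mitochondrial-targeting-deleted ΔN-hSARM1; PC6 base-exchange fluorescent probe (50 μM) plus compound (30 μM) added ~8 h post-transfection. Fluorescence (ex 405/em 525 nm) read ~48 h from transfection; inhibition % versus transfected DMSO control, untransfected background subtracted.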

For data set [5], the target named is T2, nicotinamide phosphoribosyl transferase (NAMPT) (Homo sapiens, UniProt P43490).
T2 construct: purchased Medical & Biological Laboratories Co., Ltd. (MBL)
The data set is described as follows: NAMPT activity measurement (NMN fluorescence detection). In kind it is biochemical. The conditions noted are these: NAMPT recombinant protein, 10 µM Nam; for IC50: read-out: Evaluation on NAMPT inhibitory. The method in brief:
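Recombinant NAMPT reacted with 10 µM Nam, 0.5 µM PRPP, 2 µM ATP in Tris pH 7.4 buffer with MgCl2, DTT, BSA; product NMN quantified by fluorescence (ex 421/em 480 nm) after derivatization with 2-acetylbenzofuran. Compounds at 3 nM–10 µM; control-normalized signal used for IC50.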

Data set [6] concerns primary cultured cells of mouse fetus-derived dorsal root ganglia (DRGs). Put plainly: Suppression of axonal degeneration after axotomy in DRG explant culture. In kind it is cell-based. The conditions noted are these: minimum concentration at which axonal degeneration was suppressed (DI 0.3 or less), 24 hours after axotomy; for minimal effective concentration: Mus musculus, read-out: Evaluation on protection against degeneration. The method in brief: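 Embryonic ICR mouse DRG explants were cultured 7–8 days in nicotinamide-free neuronal medium with NGF, then axotomized by removing the cell bodies. Compound (100 pM–10 µM final, 0.1% DMSO) was added within 30 min, and neurites were imaged 24 h later. The result is the lowest concentration giving degeneration index ≤0.3.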

T2 sequence (P43490 whole entry, species assumed): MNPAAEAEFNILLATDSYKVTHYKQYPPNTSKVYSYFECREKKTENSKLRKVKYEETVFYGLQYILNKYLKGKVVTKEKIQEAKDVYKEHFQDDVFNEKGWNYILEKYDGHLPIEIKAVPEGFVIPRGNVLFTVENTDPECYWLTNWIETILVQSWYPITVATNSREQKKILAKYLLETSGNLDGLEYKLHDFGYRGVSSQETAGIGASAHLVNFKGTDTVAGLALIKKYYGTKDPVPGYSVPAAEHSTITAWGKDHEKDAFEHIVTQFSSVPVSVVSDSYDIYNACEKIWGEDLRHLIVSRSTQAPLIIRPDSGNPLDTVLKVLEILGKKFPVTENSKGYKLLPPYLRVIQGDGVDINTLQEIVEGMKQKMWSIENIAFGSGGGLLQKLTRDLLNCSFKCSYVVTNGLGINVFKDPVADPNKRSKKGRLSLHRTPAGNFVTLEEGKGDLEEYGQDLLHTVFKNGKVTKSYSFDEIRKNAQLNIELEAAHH

For the compound `CC(C)(C)C(=O)Nc1ccc(CNC(=O)c2ccc[n+]([C@@H]3O[C@H](COP(=O)([O-])O)[C@@H](O)[C@H]3O)c2)cn1` [compound 76-NMN-like metabolite], at hSARM1 [1], the SARM1 inhibitory activity result is given as “stronger activity than that of compound 76”. Besides, the “metabolites detected in the plasma” value in data set [2] is recorded as “detected, albeit at a much lower concentration than that of compound 76”.
For `Nc1ncnc2c1ncn2[C@@H]1O[C@H](COP(=O)([O-])OP(=O)(O)OC[C@H]2O[C@@H]([n+]3cccc(C(=O)NCc4ccc(NC(=O)c5ccccc5)nc4)c3)[C@H](O)[C@@H]2O)[C@@H](O)[C@H]1O` [compound 105-NAD-like metabolite], the SARM1 inhibitory activity entry on hSARM1 [1] is on record as “exhibited stronger activity in this order”.
The same measure, in the same setting: the result for `O=C(NCCCOCCOCCCNC(=O)c1ccc[n+]([C@@H]2O[C@H](COP(=O)([O-])O)[C@@H](O)[C@H]2O)c1)c1cccnc1` [compound 35-NMN-like metabolite] reads “stronger activity than that of compound 35”; that for `Nc1ncnc2c1ncn2[C@@H]1O[C@H](COP(=O)([O-])OP(=O)(O)OC[C@H]2O[C@@H]([n+]3cccc(C(=O)NCCCOCCOCCCNC(=O)c4cccnc4)c3)[C@H](O)[C@@H]2O)[C@@H](O)[C@H]1O` [compound 35-NAD-like metabolite], “stronger activity than that of compound 35”.
As to `O=C(NCc1ccc(NC(=O)c2ccccc2)nc1)c1ccc[n+]([C@@H]2O[C@H](CO)[C@@H](O)[C@H]2O)c1` [compound 105-riboside form], the SARM1 inhibitory activity result on hSARM1 [1] is “exhibited stronger activity in this order”. Further, in data set [3], the production of metabolites result is on record as “confirmed”.
As for `O=C(NCc1ccc(NC(=O)c2ccccc2)nc1)c1ccc[n+]([C@@H]2O[C@H](COP(=O)([O-])O)[C@@H](O)[C@H]2O)c1` [compound 105-NMN-like metabolite], the SARM1 inhibitory activity result at hSARM1 [1] is given as “exhibited stronger activity in this order”.
As to `CC(C)(C)C(=O)Nc1ccc(CNC(=O)c2ccc[n+]([C@@H]3O[C@H](COP(=O)(O)OP(=O)([O-])OC[C@H]4O[C@@H](n5cnc6c(N)ncnc65)[C@H](O)[C@@H]4O)[C@@H](O)[C@H]3O)c2)cn1` [compound 76-NAD-like metabolite], at hSARM1 [1], the SARM1 inhibitory activity result was “stronger activity than that of compound 76”.
For the compound `O=C(NCc1ccc(NC(=O)c2cccc(OC(F)(F)F)c2)nc1)c1cccnc1` [compound 86], the inhibition at 30 µM on hSARM1 [4] is > 75%. The IC50 in data set [5] was ≥ 100 nM. For the same compound, the minimal effective concentration in data set [6] is 0.01 to 0.1 µM.
The like results for `O=C(COc1cccc(C(F)(F)F)c1)Nc1ccc(CNC(=O)c2cccnc2)cn1` [Compound 175] were, in that order, > 75%, ≥ 100 nM and 0.01 to 0.1 µM.
Regarding `O=C(NCc1ccc(NC(=O)c2ccccc2OC(F)(F)F)nc1)c1cccnc1` [compound 85], the inhibition at 30 µM on hSARM1 [4] is > 75%. Moreover, the “Evaluation on NAMPT inhibitory” value in data set [5] is “○”. In addition, the “Evaluation on protection against degeneration” value (shortened to “Evaluation on protection”) in data set [6] is on record as “B (0.01 µM < B ≤ 0.1 µM)”.
With `O=C(NCc1ccc(NC(=O)c2cnc3ccccc3c2)nc1)c1cccnc1` [Compound 126], the inhibition at 30 µM at hSARM1 [4] was > 75%. The IC50 in data set [5] is ≥ 100 nM. For the same compound, the minimal effective concentration in data set [6] is ≤ 0.01 µM.
As to `O=C(NCCCOCCOCCCNC(=O)c1ccc2ccccc2c1)c1cccnc1` [Compound 187], the inhibition at 30 µM on hSARM1 [4] is > 25%. Besides, the “Evaluation on NAMPT inhibitory” value in data set [5] is “○”. Besides, the “Evaluation on protection” value in data set [6] is reported as “C (0.1 µM < C ≤ 1 µM)”.
Consider `O=C(Cc1ccc(OCc2ccccc2)cc1)Nc1ccc(CNC(=O)c2cccnc2)cn1` [Compound 177], for which, on hSARM1 [4], the inhibition at 30 µM was > 75%. Moreover, the IC50 in data set [5] is ≥ 100 nM. Moreover, the minimal effective concentration in data set [6] was in the range of 0.01 to 0.1 µM.
The like results for `NCCOCCCCCCCCNC(=O)c1cccnc1` [compound 96] were, in that order, > 75%, ≥ 100 nM and ≤ 0.01 µM.
On to `CCC(CC)C(=O)Nc1ccc(CNC(=O)c2cccnc2)cn1` [Compound 163], for which, on hSARM1 [4], the inhibition at 30 µM is > 25%. Further, in data set [5], the “Evaluation on NAMPT inhibitory” value is on record as “○”. For the same compound, in data set [6], the “Evaluation on protection” value is listed as “A (A ≤ 0.01 µM)”.
